Measured values taken from paper PMC5342230, “ITC-derived binding affinity may be biased due to titrant (nano)-aggregation. Binding of halogenated benzotriazoles to the catalytic domain of human protein kinase CK2” (PLoS ONE, 2017).
Converted amounts (≈) assume the structure as drawn. “And” between values parts separate entries of the source, which are not always exact repeats. Identical values can stand only once. Marks after values point to notes of the source that are not given here.

How the values were obtained:
[1] = molecular target: T1, catalytic subunit of human protein kinase CK2 (hCK2α) (Homo sapiens, UniProt P68400); assay: ITC (hCK2α titrated with the ligand), one type of binding sites; settings: ligand as titrant, 25°C
T1 construct: made in house
T1 sequence (P68400 whole entry): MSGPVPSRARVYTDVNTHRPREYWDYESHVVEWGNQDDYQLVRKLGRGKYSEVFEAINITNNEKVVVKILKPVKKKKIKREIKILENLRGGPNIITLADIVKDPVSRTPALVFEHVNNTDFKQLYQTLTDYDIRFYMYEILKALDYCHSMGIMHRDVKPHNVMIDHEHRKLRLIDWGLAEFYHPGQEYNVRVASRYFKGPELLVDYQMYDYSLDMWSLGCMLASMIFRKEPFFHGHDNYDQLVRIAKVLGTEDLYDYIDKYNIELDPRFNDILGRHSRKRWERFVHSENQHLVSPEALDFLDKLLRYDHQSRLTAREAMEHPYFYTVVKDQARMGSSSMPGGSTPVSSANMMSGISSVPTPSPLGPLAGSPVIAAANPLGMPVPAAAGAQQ
Protocol: (§1) It should be stressed that the solvent composition of protein and ligand samples were always identical, so that the protein and ligand concentrations were the only variable factors.
(§2) All ITC measurements were carried out at 25°C with the Nano ITC calorimeter (TA Instruments), using 250 rpm stirring and 1000 s delay between succeeding injections to the sample cell (950 μl). The first “technical” injection of a reduced volume (4–5 μl) was followed by 12 injections of 20 μl, however 16x15 μl or 10x25 μl schemes were occasionally used. The concentration of reagents varied depending on their affinities and experiment type. Thus 20–200 μM ligand solution was used as the titrant, but only 4–10 μM when placed in the sample cell. Accordingly, the sample cell was filled with 4–30 μM hCK2α solution, while 20–40 μM protein solution was placed in the syringe. For each ligand at least two titration experiments were done with different reagent concentrations, and occasionally with optimized injection volume. […] The resulting data were processed with the standard NanoAnalyze software package (version 3.5.0), assuming the model of one type of binding sites of the apparent stoichiometry close to 1:1. The automatically adjusted integration regions were used to minimize the impact of researcher’s arbitrary decision. The uncertainty of all determined values was estimated as the half-width of 67% confidence interval.

[2] = molecular target: T1, catalytic subunit of human protein kinase CK2 (hCK2α); assay: Reverse ITC (ligand titrated with hCK2α), one type of binding sites; settings: strong site
[3] = molecular target: T1, catalytic subunit of human protein kinase CK2 (hCK2α); assay: Reverse ITC with MST-derived Kd (two types of binding sites, Kd constrained); settings: for ΔG1 / ΔG2 / Kd: constrained based on the MST-derived binding affinities; for ΔH1 / ΔS1 / ΔH2 / ΔS2: reverse ITC, two-site model, Kd from MST; for ΔH1 / ΔS1: strong site; for ΔH2 / ΔS2: weak site
Protocol: All ITC measurements were carried out at 25°C with the Nano ITC calorimeter (TA Instruments), using 250 rpm stirring and 1000 s delay between succeeding injections to the sample cell (950 μl). The first “technical” injection of a reduced volume (4–5 μl) was followed by 12 injections of 20 μl, however 16x15 μl or 10x25 μl schemes were occasionally used. The concentration of reagents varied depending on their affinities and experiment type. Thus 20–200 μM ligand solution was used as the titrant, but only 4–10 μM when placed in the sample cell. Accordingly, the sample cell was filled with 4–30 μM hCK2α solution, while 20–40 μM protein solution was placed in the syringe. For each ligand at least two titration experiments were done with different reagent concentrations, and occasionally with optimized injection volume. […] The automatically adjusted integration regions were used to minimize the impact of researcher’s arbitrary decision. The uncertainty of all determined values was estimated as the half-width of 67% confidence interval.

[4] = molecular target: T1, catalytic subunit of human protein kinase CK2 (hCK2α); assay: Reverse ITC (ligand titrated with hCK2α), one type of binding sites; settings: protein as titrant, 25°C
Protocol: as §1, §2

[5] = molecular target: T1, catalytic subunit of human protein kinase CK2 (hCK2α); assay: Microscale Thermophoresis (MST), global fit of two independent binding sites; settings: for Kd: global fit of 6 pseudo-titrations
Protocol: For MST experiments the protein sample additionally contained 5 mM β-mercaptoethanol to prevent sticking of protein to capillaries.
as §1
The concentration of the labeled protein was kept constant at ~100 nM, while the ligand to protein concentration ratio was in the range of 0.01 to 10^5 nM. The samples were loaded into K002 Monolith™ NT.115 Standard Treated Capillaries, which after 10 min incubation time were analyzed using the Monolith NT.115 (NanoTemper Technologies). […] The numerical model was based on the cubic equation describing the concentration-dependent equilibrium of the apo form of the protein, free ligand, and their 1:1 and 1:2 complexes K1⋅K2⋅[L]^3+(K1+K1⋅K2⋅(2⋅P0-L0))⋅[L]^2+(1+K1⋅(P0-L0))⋅[L]=L0 (1) where P0 and L0 are the total concentrations of the protein and ligand, respectively; K1 and K2 are the […] for 1:1 and 1:2 complexes; and [L] is the concentration of the free ligand. The above equation can be resolved by roots against [L]
Concentrations of 1:1 and 1:2 complexes equal K1∙[P]∙[L] and K1∙K2∙[P]∙[L]^2, respectively. The model was implemented in Origin 9.0 package (www.originlab.com). Dissociation constants, K1 and K2, were estimated globally for a series of 6 MST pseudo-titration experiments, while contributions of three protein forms (i.e. apo, and 1:1 and 1:2 complexes) to the observed MST signal were fitted individually for each experiment (S1 Fig).

[6] = UV-VIS spectroscopy, deviation from Lambert-Beer law (ligand aggregation); format: physicochemical
Protocol: The absorption spectra (200–500 nm) were collected at 25°C using Varian Cary 50 UV-VIS spectrophotometer equipped with 1 cm quartz cells. The initial buffer solution was manually titrated with the 851 μM TBBt solution to record spectra for increasing solute concentration. For each sample UV-VIS spectrum was collected four times, every 20 s including 15 s acquisition time, starting 5 s after solute dilution. The changes in the absorption spectrum of 40 μM TBBt sample, prepared just before the experiment, were additionally tracked for an hour to follow possible disintegration of soluble aggregates.

[7] = Dynamic light scattering (DLS/SLS) of ligand nano-aggregates; format: physicochemical; settings: for formation of nano-aggregates (DLS autocorrelation function): 1 mM ligand, 25°C, buffer with 2% DMSO
Protocol: All DLS experiments were carried out at 25°C with the DynaPro NanoStar 192-DPN apparatus (Wyatt Technology) equipped with 661 nm laser. The autocorrelation function for the light scattered by 5-BrBt or TBBt buffered solution placed in Eppendorf disposable cuvettes (50–2000 μl) was measured at various solute concentrations in the range of 0.5 μs– 0.1 s, and further decomposed to the distribution of particle size (ranging from 0.18 nm to 2.5 μm) using Dynamics software (Wyatt Technology, ver. 7.0.2.7). Solutions with 2% (v/v) DMSO content were prepared in 25 mM Tris-HCl (pH 8, 0.5 M NaCl) filtered with 0.22 μm pore size syringe filter. All samples were centrifuged (9000 g) for 3 minutes immediately before the experiment. For each sample a series of at least 30 repetitions, 10 s each, has been collected, and those with abnormally high SOS function and/or with highly fluctuating SLS signal were removed from the analysis. All remaining data have been averaged to obtain the autocorrelation function (ACF) of a reasonable quality. This procedure was found indispensable for diluted TBBt solutions, in which large aggregates have rarely scattered light crossing the laser beam. Consequently, extreme fluctuations of ACF precluded direct analysis of the time-evolution of TBBt aggregates. However, the raw SLS signal was found applicable to estimate the rate of aggregate disintegration.

[8] = set-up: method as in http://www.sigmaaldrich.com/catalog/product/sigma/t0826; settings: ref http://www.sigmaaldrich.com/catalog/product/sigma/t0826; cited from earlier work
[9] = strong site, read-out: Kd1 (strong binding site)
[10] = weak site, read-out: Kd2 (weak binding site)

Compound	Kd [1] [nM]	ΔG [1] [kcal/mol]	ΔH [1] [kcal/mol]	ΔS [1] [J/mol/K]	ΔG1 [3]	ΔG2 [3]	Kd ([3]; read-out: Kd1) [nM]	Kd ([3]; read-out: Kd2) [nM]	ΔH1 [3] [kcal/mol]	ΔS1 [3] [J/mol/K]	ΔH2 [3] [kcal/mol]	ΔS2 [3] [J/mol/K]	Kd [4] [nM]	ΔG [4] [kcal/mol]	ΔH [4] [kcal/mol]	ΔS [4] [J/mol/K]	ΔG1 ([5]; strong site) [kcal/mol]	Kd [5, 9] [nM]	ΔG2 ([5]; weak site) [kcal/mol]	Kd [5, 10] [nM]	other results
Brc1cc2[nH]nnc2c(Br)c1Br [4,5,6-Br3Bt, 4,5,6-tribromobenzotriazole]	990 ± 270	-8.2 ± 0.14	-8.37 ± 0.48	-2 ± 5	-40.4 ^x kJ/mol	-30.5 ^x kJ/mol	83	4600	-10.5 ± 0.48	-12 ± 9	0.48 ± 2.2	109 ± 31	42 ± 17	-10.1 ± 0.19	-9.56 ± 0.24	9 ± 4	-9.66 ± 0.17	83 ± 29	-7.29 ± 0.17	4600 ± 1400	entropic contribution to binding [2]: favorable entropic contribution
Brc1cc2nn[nH]c2cc1Br [5,6-Br2Bt, 5,6-dibromobenzotriazole]	1170 ± 270	-8.1 ± 0.12	-15.1 ± 0.48	-97 ± 8	-40.5 ^x kJ/mol	-30.6 ^x kJ/mol	81	4400	-18.6 ± 3.11	-126 ± 43	2.63 ± 8.13	140 ± 114	46 ± 10	-10 ± 0.12	-17 ± 0.48	-98 ± 6	-9.68 ± 0.14	81 ± 22	-7.31 ± 0.072	4400 ± 500	
Brc1ccc2nn[nH]c2c1 [5-BrBt]	310 ± 89	-8.87 ± 0.14	-16.3 ± 0.72	-102 ± 9	-37.7 ^x kJ/mol	-29.7 ^x kJ/mol	246	6300	-17.4 ± 1.2	-118 ± 15	1.7 ± 5.5	123 ± 77	294 ± 73	-8.91 ± 0.12	-16.7 ± 0.72	-110 ± 10	-9.01 ± 0.072	246 ± 36	-7.1 ± 0.096	6300 ± 1000	plot of concentration versus absorbance (Lambert-Beer law) ([6]; control experiment): remained linear; formation of nano-aggregates (DLS autocorrelation function) [7]: no such effect was observed
Brc1c(Br)c(Br)c2[nH]nnc2c1Br [TBBt, tetrabromobenzotriazole]																					solubility in pure DMSO [8]: 65 mM (≈ 28.3 mg/mL); τ, increase of population of the monomeric form (absorption at 291 nm) ([6]; 40 μM solution, tracked for an hour): 670 ± 40 s; upper limit of ligand concentration at which monomeric form predominates ([6]; UV absorbance, deviation from Lambert-Beer law): 20 to 30 µM; formation of nano-aggregates (DLS autocorrelation function) [7]: forms nano-aggregates; radius of nano-aggregates ([7]; DLS, 1 mM down to 20 μM): ~ 100 nm and 100 nm; τ, decay of the aggregate population (raw SLS signal) ([7]; after rapid dilution of 500 μM sample): 460 ± 40 s
